Laboratory results published in ChEMBL document CHEMBL1201862, “PubChem BioAssay data set” (2004).
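1) Cells in 96-well plates. 2) Compound, 48 h, 5 concentrations. 3) Linear interpolation between surrounding doses. 4) Unreached endpoint = highest concentration. Here, GI50 denotes the concentration required for 50% inhibition of growth.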 The source made the active and inactive calls. Rule as the data show it: active = GI50 up to about 1.1 µM and inactive = higher.

Tests used:
Assay in all cases: inhibition of tumour cell growth, NCI panel, 48 h
OVCAR-5 = tested on: OVCAR-5
Hs-578T = tested on: Hs-578T
HOP-92 = tested on: HOP-92
TK-10 = tested on: TK-10
MDA-MB-231 = tested on: MDA-MB-231
OVCAR-4 = tested on: OVCAR-4
SK-MEL-2 = tested on: SK-MEL-2
HT-29 = tested on: HT-29
SW-620 = tested on: SW-620
A498 = tested on: A498
CCRF-CEM = tested on: CCRF-CEM
CAKI-1 = tested on: CAKI-1
OVCAR-8 = tested on: OVCAR-8
RXF 393 = tested on: RXF 393
SF-268 = tested on: SF-268
Malme-3M = tested on: Malme-3M
MOLT-4 = tested on: MOLT-4
NCI-H522 = tested on: NCI-H522
SR = tested on: SR
U-251 = tested on: U-251
NCI/ADR-RES = tested on: NCI/ADR-RES
UACC-257 = tested on: UACC-257
UACC-62 = tested on: UACC-62
PC-3 = tested on: PC-3
KM12 = tested on: KM12
NCI-H460 = tested on: NCI-H460
SN12C = tested on: SN12C
HCT-15 = tested on: HCT-15
MDA-N = tested on: MDA-N
LOX IMVI = tested on: LOX IMVI
HCT-116 = tested on: HCT-116
DU-145 = tested on: DU-145
NCI-H23 = tested on: NCI-H23
SK-MEL-28 = tested on: SK-MEL-28
COLO 205 = tested on: COLO 205
MCF7 = tested on: MCF7
IGROV-1 = tested on: IGROV-1
UO-31 = tested on: UO-31
SF-295 = tested on: SF-295
BT-549 = tested on: BT-549
RPMI-8226 = tested on: RPMI-8226
EKVX = tested on: EKVX
A549 = tested on: A549
SF-539 = tested on: SF-539
T47D = tested on: T47D
OVCAR-3 = tested on: OVCAR-3
MDA-MB-435 = tested on: MDA-MB-435
ACHN = tested on: ACHN
SK-OV-3 = tested on: SK-OV-3
SK-MEL-5 = tested on: SK-MEL-5
SNB-19 = tested on: SNB-19
K562 = tested on: K562
HL-60 = tested on: HL-60
HOP-62 = tested on: HOP-62
NCI-H226 = tested on: NCI-H226
SNB-75 = tested on: SNB-75
M14 = tested on: M14
786-0 = tested on: 786-0
HCC 2998 = tested on: HCC 2998

C[N+](C)(CCCCCC[N+](C)(C)CCCN1C(=O)c2cccc3cccc(c23)C1=O)CCCN1C(=O)c2cccc3cccc(c23)C1=O
GI50 (OVCAR-5): > 100 µM (inactive) | GI50 (Hs-578T): > 100 µM (inactive) | GI50 (HOP-92): > 100 µM (inactive) | GI50 (TK-10): > 100 µM (inactive) | GI50 (MDA-MB-231): 56.2 µM (inactive) | GI50 (OVCAR-4): > 100 µM (inactive) | GI50 (SK-MEL-2): > 100 µM (inactive) | GI50 (HT-29): > 100 µM (inactive) | GI50 (SW-620): > 100 µM (inactive) | GI50 (A498): > 100 µM (inactive) | GI50 (CCRF-CEM): > 100 µM (inactive) | GI50 (CAKI-1): 78 µM (inactive) | GI50 (OVCAR-8): > 100 µM (inactive) | GI50 (RXF 393): > 100 µM (inactive) | GI50 (SF-268): > 100 µM (inactive) | GI50 (Malme-3M): > 100 µM (inactive) | GI50 (MOLT-4): > 100 µM (inactive) | GI50 (NCI-H522): > 100 µM (inactive) | GI50 (SR): > 100 µM (inactive) | GI50 (U-251): > 100 µM (inactive) | GI50 (NCI/ADR-RES): > 100 µM (inactive) | GI50 (UACC-257): > 100 µM (inactive) | GI50 (UACC-62): 33 µM (inactive) | GI50 (PC-3): > 100 µM (inactive) | GI50 (KM12): > 100 µM (inactive) | GI50 (NCI-H460): > 100 µM (inactive) | GI50 (SN12C): > 100 µM (inactive) | GI50 (HCT-15): > 100 µM | GI50 (MDA-N): > 100 µM (inactive) | GI50 (LOX IMVI): > 100 µM (inactive) | GI50 (HCT-116): 72.8 µM (inactive) | GI50 (DU-145): > 100 µM (inactive) | GI50 (NCI-H23): > 100 µM (inactive) | GI50 (SK-MEL-28): > 100 µM (inactive) | GI50 (COLO 205): > 100 µM (inactive) | GI50 (MCF7): > 100 µM (inactive) | GI50 (IGROV-1): > 100 µM (inactive) | GI50 (UO-31): > 100 µM (inactive) | GI50 (SF-295): 41.7 µM (inactive) | GI50 (BT-549): > 100 µM (inactive) | GI50 (RPMI-8226): > 100 µM (inactive) | GI50 (EKVX): > 100 µM (inactive) | GI50 (A549): > 100 µM (inactive) | GI50 (SF-539): > 100 µM (inactive) | GI50 (T47D): > 100 µM (inactive) | GI50 (OVCAR-3): 84.9 µM (inactive) | GI50 (MDA-MB-435): > 100 µM (inactive) | GI50 (ACHN): > 100 µM (inactive) | GI50 (SK-OV-3): > 100 µM (inactive) | GI50 (SK-MEL-5): > 100 µM (inactive) | GI50 (SNB-19): > 100 µM (inactive) | GI50 (K562): > 100 µM (inactive) | GI50 (HL-60): > 100 µM (inactive)

CCOC(=O)NC(Nc1ccc(C(=O)OCC)cc1)(C(F)(F)F)C(F)(F)F
GI50 (OVCAR-5): 79.8 µM (inactive) | GI50 (HOP-62): > 100 µM (inactive) | GI50 (Hs-578T): > 100 µM (inactive) | GI50 (HOP-92): > 100 µM (inactive) | GI50 (TK-10): > 100 µM (inactive) | GI50 (MDA-MB-231): > 100 µM (inactive) | GI50 (OVCAR-4): > 100 µM (inactive) | GI50 (NCI-H226): > 100 µM (inactive) | GI50 (HT-29): > 100 µM (inactive) | GI50 (SW-620): 61.4 µM (inactive) | GI50 (A498): > 100 µM (inactive) | GI50 (CCRF-CEM): 6.58 µM (inactive) | GI50 (OVCAR-8): > 100 µM (inactive) | GI50 (SNB-75): > 100 µM (inactive) | GI50 (SF-268): > 100 µM (inactive) | GI50 (Malme-3M): > 100 µM (inactive) | GI50 (MOLT-4): 11.1 µM (inactive) | GI50 (NCI-H522): > 100 µM (inactive) | GI50 (SR): 86.3 µM (inactive) | GI50 (U-251): 68.1 µM (inactive) | GI50 (NCI/ADR-RES): > 100 µM (inactive) | GI50 (UACC-62): 13.1 µM (inactive) | GI50 (PC-3): 45 µM (inactive) | GI50 (KM12): 78.9 µM (inactive) | GI50 (NCI-H460): 66.8 µM (inactive) | GI50 (SN12C): > 100 µM (inactive) | GI50 (HCT-15): 42.9 µM | GI50 (MDA-N): 49.8 µM (inactive) | GI50 (LOX IMVI): 4.26 µM (inactive) | GI50 (HCT-116): > 100 µM (inactive) | GI50 (DU-145): > 100 µM (inactive) | GI50 (NCI-H23): > 100 µM (inactive) | GI50 (M14): > 100 µM (inactive) | GI50 (SK-MEL-28): > 100 µM (inactive) | GI50 (COLO 205): > 100 µM (inactive) | GI50 (MCF7): > 100 µM (inactive) | GI50 (IGROV-1): 56.8 µM (inactive) | GI50 (UO-31): 42.5 µM (inactive) | GI50 (SF-295): > 100 µM (inactive) | GI50 (786-0): > 100 µM (inactive) | GI50 (BT-549): > 100 µM (inactive) | GI50 (RPMI-8226): > 100 µM (inactive) | GI50 (A549): 50.9 µM (inactive) | GI50 (SF-539): > 100 µM (inactive) | GI50 (T47D): 49 µM (inactive) | GI50 (OVCAR-3): > 100 µM (inactive) | GI50 (MDA-MB-435): 51.2 µM (inactive) | GI50 (ACHN): 42.7 µM (inactive) | GI50 (SK-OV-3): > 100 µM (inactive) | GI50 (SK-MEL-5): 65.2 µM (inactive) | GI50 (HCC 2998): > 100 µM (inactive) | GI50 (SNB-19): 96.8 µM (inactive) | GI50 (K562): 9.29 µM (inactive) | GI50 (HL-60): > 100 µM (inactive)

CCOC(=O)c1c(-c2ccccc2)[nH]c2ccc(Cl)cc2c1=O
GI50 (OVCAR-5): > 100 µM (inactive) | GI50 (HOP-62): 65.9 µM (inactive) | GI50 (Hs-578T): 35.4 µM (inactive) | GI50 (HOP-92): 22 µM (inactive) | GI50 (TK-10): 42.8 µM (inactive) | GI50 (MDA-MB-231): 31.3 µM (inactive) | GI50 (OVCAR-4): 20.5 µM (inactive) | GI50 (NCI-H226): 68.9 µM (inactive) | GI50 (SK-MEL-2): 34 µM (inactive) | GI50 (HT-29): 27.9 µM (inactive) | GI50 (SW-620): > 100 µM (inactive) | GI50 (CCRF-CEM): 26.4 µM (inactive) | GI50 (CAKI-1): 37.9 µM (inactive) | GI50 (OVCAR-8): 31.8 µM (inactive) | GI50 (SNB-75): 45.8 µM (inactive) | GI50 (RXF 393): 35 µM (inactive) | GI50 (SF-268): 50.1 µM (inactive) | GI50 (Malme-3M): 61.8 µM (inactive) | GI50 (MOLT-4): 28.3 µM (inactive) | GI50 (NCI-H522): 28 µM (inactive) | GI50 (SR): 33.3 µM (inactive) | GI50 (U-251): 41.6 µM (inactive) | GI50 (NCI/ADR-RES): 32.2 µM (inactive) | GI50 (UACC-257): 36 µM (inactive) | GI50 (UACC-62): 37.7 µM (inactive) | GI50 (PC-3): 41.1 µM (inactive) | GI50 (KM12): 34.8 µM (inactive) | GI50 (NCI-H460): 30.3 µM (inactive) | GI50 (SN12C): 51.4 µM (inactive) | GI50 (HCT-15): 33.3 µM | GI50 (MDA-N): 37.7 µM (inactive) | GI50 (LOX IMVI): 37.4 µM (inactive) | GI50 (HCT-116): 27.2 µM (inactive) | GI50 (DU-145): 56 µM (inactive) | GI50 (NCI-H23): 41.1 µM (inactive) | GI50 (M14): 49.9 µM (inactive) | GI50 (SK-MEL-28): 69.7 µM (inactive) | GI50 (COLO 205): 47.5 µM (inactive) | GI50 (MCF7): 31.8 µM (inactive) | GI50 (IGROV-1): 29.6 µM (inactive) | GI50 (UO-31): 29.4 µM (inactive) | GI50 (SF-295): 47.8 µM (inactive) | GI50 (786-0): 38.7 µM (inactive) | GI50 (BT-549): 30.8 µM (inactive) | GI50 (RPMI-8226): 36.9 µM (inactive) | GI50 (EKVX): 54.6 µM (inactive) | GI50 (A549): 36.6 µM (inactive) | GI50 (SF-539): 29.9 µM (inactive) | GI50 (T47D): 23.7 µM (inactive) | GI50 (OVCAR-3): 19.5 µM (inactive) | GI50 (MDA-MB-435): 34.8 µM (inactive) | GI50 (ACHN): 27.6 µM (inactive) | GI50 (SK-OV-3): 45.1 µM (inactive) | GI50 (SK-MEL-5): 29.8 µM (inactive) | GI50 (HCC 2998): 37.9 µM (inactive) | GI50 (SNB-19): > 100 µM (inactive) | GI50 (K562): 28.8 µM (inactive) | GI50 (HL-60): 28.2 µM (inactive)
